# Where two headings read alike, the source gives them in different places.
# Experiments:
# Assay type in all cases: in vivo
# [1] = tested on: larvae of 28-spotted lady beetle (Epilachna vigintioctopunctana Fabricius); test: Test Example 8: insecticidal activity against larvae of 28-spotted lady beetle; settings: 120 h
# Description: Insecticidal activity against larvae of 28-spotted lady beetle (Epilachna vigintioctopunctana Fabricius).
# Testing method: Leaflets of tomato grown in a greenhouse were dipped in a test composition of 100 ppm concentration for 30 seconds and after that the leaflets were dried by air. In a Petri dish covered on the bottom with a piece of filter paper, were introduced 1 ml of water and three treated tomato leaflets. After having been infested with seven second-instar larvae of 28-spotted lady beetle, the Petri dish was left standing in a constant temperature cabinet at 25° C. Five days after the treatment, the dead-and-survival was inspected to calculate the mortality (2-replication test).
# [2] = tested on: two-spotted spider mite (Tetranychus urticae Koch); test: Test Example 3: activity to two-spotted spider mite
# From the text: Activity to two-spotted spider mite (Tetranychus urticae Koch).
# Testing method: Two-spotted spider mites were set free on the pot-planted soybean in a greenhouse. On the next day, a test composition of 1,000 ppm concentration was sprayed over the soybean by means of a spray gun. Two days or five days after the treatment, dead-and-survival was inspected to calculate the mortality.
# [3] = tested on: larvae of green rice leafhopper (Nephotettix cincticeps Uhler); test: Test Example 5: activity against larvae of green rice leafhopper; settings: 168 h, 400 ppm, second-instar larvae, 25° C., seven days after treatment, read-out: Mortality
# Outline: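 Rice seedlings at 1.5 leaf age dipped 30 seconds in 400 ppm test composition, air-dried, then infested with five second-instar larvae. Kept at 25° C; mortality scored seven days after treatment, three replicates.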
# [4] = tested on: larvae of house mosquito (Culex pipiens pallens Coquillett); test: Test Example 6: insecticidal activity to larvae of house mosquito; settings: 120 h
# Outline: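 Twenty first-instar Culex pipiens pallens larvae placed with feed in test composition diluted in deionized water to 10 ppm. Kept at 25 °C, and mortality counted five days after treatment.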
# [5] = tested on: cirrus red mite (Panonychus citri McGregor); test: Test Example 4: activity to citrus red mite (Rothamstead method); set-up: concentration or dose not given beside the values; settings: two days after treatment, 25° C.; 2880 min
# Description: Activity to cirrus red mite (Panonychus citri McGregor).
# Testing method: The test was performed by Rothamstead method. A test composition was sprayed by means of a spray gun over grapefruit leaves infested with citrus red mites. After air-drying the grapefruit was left standing in a constant temperature cabinet at 25° C. Two days after the treatment, the number of survived mites was counted to calculate the mortality.
# [6] = tested on: larvae of brown planthopper (Nilaparvata lugens Stahl); test: Test Example 1: insecticidal activity against larvae of brown planthopper; settings: third-instar larvae, 25° C.
# Outline: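 Rice seedlings at 1.5-leaf stage were dipped for 30 s in a 400 ppm test composition, air-dried, and infested with third-instar N. lugens larvae. After holding at 25 °C, mortality was scored 5 or 7 days post-treatment from three replicates.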
# [7] = tested on: larvae of bug. (Togo hemipterus Scott); test: Test Example 9: insecticidal activity against larvae of bug; settings: 120 h, 10 ppm, first-instar larvae, 25° C., five days, read-out: Mortality
# Description: Insecticidal activity against larvae of bug. (Togo hemipterus Scott).
# Test method: Into a glass tube (1.6 cm in internal diameter and 9 cm in length), was added 1 ml of a test composition in 10 ppm concentration just to moisten the absorbent cotton. Five rice seeds and five first-instar larvae were introduced into the glass tube and the tube end was covered with a piece of Japanese paper. The glass tube was kept in a constant temperature cabinet at 25° C. Five days after treatment, the dead-and-survival was inspected to calculate the mortality (3-replication test).
# [8] = tested on: larvae of white-backed planthopper (Sogatella furcifera Horvath); test: Test Example 2: insecticidal activity against larvae of white-backed planthopper; settings: 168 h, 400 ppm, first-instar larvae, 25° C., seven days after treatment, read-out: Mortality
# Description: Insecticidal activity against larvae of white-backed planthopper (Sogatella furcifera Horvath).
# Testing method: Five rice seedlings of the 1.5 leaf age were dipped in a test composition of 400 ppm concentration for 30 seconds. After air-drying, the seedlings were placed in a glass tube containing 1 ml of water and infested with five first-instar larvae of white-backed planthopper. The glass tube was left standing in a constant temperature cabinet at 25° C. and seven days after the treatment, dead-and-survival was observed. Mortality was calculated from the results of 3-replication test.
# [9] = 120 h, 1,000 ppm, 5 days after treatment
# [10] = 100 ppm, second-instar larvae, 25° C., five days, read-out: Mortality
# [11] = 48 h, 1,000 ppm, 2 days after treatment
SMILES,mortality at 100 ppm [1],"mortality at 1000 ppm [2, 9]",mortality at 400 ppm [3],mortality at 10 ppm [4],Mortality [5],"mortality at 400 ppm ([6]; 120 h, 5 days after treatment)",mortality at 10 ppm [7],"mortality at 100 ppm [1, 10]",mortality at 400 ppm [8],"mortality at 1000 ppm [2, 11]","mortality at 400 ppm ([6]; 168 h, 7 days after treatment)"
CCC(C)N1C(=O)N(c2ccccc2Cl)CSC1=NC(C)(C)C (centres unmarked) [Compound 249],100%,70%,100%,100%,100%,100%,–,–,–,–,–
CCN1C(=O)N(c2ccccc2)CSC1=NC(C)C [Compound 127],80%,–,–,100%,–,100%,100%,–,–,–,–
CCCN=C1SCN(c2ccccc2)C(=O)N1CCC [Compound 134],80%,–,–,80%,–,100%,80%,–,–,–,–
CCCN=C1SCN(c2ccccc2)C(=O)N1CC [Compound 126],–,–,–,100%,–,100%,100%,80%,–,–,–
"CC(C)CN1C(=O)N(c2ccccc2)CSC1=NC(C)C [Compound 149, 2-Isopropylimino-3-isobutyl-5-phenyl-tetrahydro-1,3,5-thiadiazin-4-one]",100%,–,–,100%,–,100%,50%,–,–,–,–
CCN1C(=O)N(c2ccccc2)CSC1=NCC(C)C [Compound 129],–,–,–,100%,–,80%,100%,–,–,–,–
Cc1ccc(N2CSC(=NC(C)C)N(C(C)C)C2=O)cc1 [Compound 316],100%,100%,–,70%,100%,100%,–,–,100%,–,–
CCC(C)N1C(=O)N(c2ccccc2)CSC1=NC(C)(C)CC(C)(C)C (centres unmarked) [Compound 157],100%,–,–,100%,–,100%,100%,–,–,–,–
CCN=C1SCN(c2ccccc2)C(=O)N1c1ccccc1 [Compound 162],–,–,–,100%,–,100%,50%,50%,–,–,–
CCCN1CSC(=NC(C)C)N(C(C)C)C1=O [Compound 14],–,–,100%,–,50%,–,–,–,100%,100%,80%
CN=C1SCN(C(C)C)C(=O)N1C [Compound 16],–,–,100%,–,100%,–,–,–,100%,100%,100%
CCCN=C1SCN(C(C)(C)C)C(=O)N1C [Compound 32],–,–,50%,–,100%,–,–,–,100%,100%,100%
CCCN1C(=O)N(c2ccccc2)CSC1=NC(C)(C)C [Compound 137],50%,–,–,100%,–,80%,50%,–,–,–,–
CCC(C)N1C(=O)N(c2ccc(C)cc2)CSC1=NC(C)(C)C (centres unmarked) [Compound 319],100%,100%,100%,100%,100%,100%,–,–,100%,–,–
CC(C)CN=C1SCN(c2ccccc2)C(=O)N1CC(C)C [Compound 148],100%,–,–,–,100%,100%,–,–,–,–,–
CCCN1C(=O)N(c2ccccc2)CSC1=NC(C)CC (centres unmarked) [Compound 136],50%,–,–,100%,–,80%,100%,–,–,–,–

SMILES,mortality at 100 ppm [1],"mortality at 1000 ppm [2, 9]",mortality at 400 ppm [3],mortality at 10 ppm [4],Mortality [5],"mortality at 400 ppm ([6]; 120 h, 5 days after treatment)",mortality at 10 ppm [7],"mortality at 100 ppm [1, 10]",mortality at 400 ppm [8],"mortality at 1000 ppm [2, 11]","mortality at 400 ppm ([6]; 168 h, 7 days after treatment)"
C=CCN=C1SCN(c2ccccc2)C(=O)N1CC=C [Compound 139],100%,–,–,100%,–,100%,100%,–,–,–,–
CC(C)N1C(=O)N(C(C)(C)C)CSC1=NC(C)(C)CC(C)(C)C [Compound 48],–,–,80%,–,100%,–,–,–,100%,100%,100%
CCCCCCN1CSC(=NC(C)C)N(C(C)C)C1=O [Compound 51],–,–,50%,–,50%,–,–,–,100%,100%,100%
"CN=C1SCN(C(C)(C)C)C(=O)N1C [Compound 31, 2-Methylimino-3-methyl-5-t-butyl-tetrahydro-1,3,5-thiadiazin-4-one]",–,–,50%,–,100%,–,–,–,100%,100%,80%
CN=C1SCN(C(C)(C)C)C(=O)N1c1ccc(F)cc1 [Compound 71],–,–,50%,–,50%,–,–,–,80%,100%,80%
"CCN=C1SCN(C(C)(C)C)C(=O)N1c1ccccc1C [Compound 80, 2-Ethylimino-3-o-tolyl-5-t-butyl-tetrahydro-1,3,5-thiadiazin-4-one]",–,–,50%,–,100%,–,–,–,100%,80%,100%
CN1C(=O)N(C2CCCCC2)CSC1=NC(C)(C)C [Compound 53],–,–,50%,–,100%,–,–,–,80%,100%,80%
"CC(C)N=C1SCN(C)C(=O)N1C(C)C [Compound 2, 2-Isopropylimino-3-isopropyl-5-methyl-tetrahydro-1,3,5-thiadiazin-4-one]",–,–,50%,–,50%,–,–,–,100%,100%,100%
CCN1CSC(=NC(C)(C)C)N(C)C1=O [Compound 6],–,–,80%,–,80%,–,–,–,100%,100%,100%
CCN1C(=O)N(C(C)(C)C)CSC1=NC(C)(C)C [Compound 42],–,–,80%,–,100%,–,–,–,100%,100%,100%
COc1ccc(Cl)cc1N1C(=O)N(Cc2ccccc2)CSC1=NC(C)C [Compound 87],–,–,80%,–,100%,–,–,–,100%,100%,100%
CN=C1SCN(C(C)(C)C)C(=O)N1c1ccc(Cl)cc1C [Compound 82],–,–,80%,–,100%,–,–,–,100%,100%,100%
CCCCCCCCN1CSC(=NC(C)C)N(C)C1=O [Compound 65],–,–,50%,–,100%,–,–,–,100%,100%,100%
CCCN=C1SCN(Cc2ccccc2)C(=O)N1CCC [Compound 56],–,–,50%,–,100%,–,–,–,80%,100%,80%
CN=C1SCN(C(C)C)C(=O)N1c1ccc(Cl)cc1C [Compound 68],–,–,50%,–,50%,–,–,–,100%,100%,100%

# — US4159328A, “Tetrahydro-1,3,5-thiadiazin-4-one derivative” (Nihon Nohyaku Co., Ltd., priority 1977, dated 1979)
